Results published in patent US20150376172A1, “FLUORO-[1,3]OXAZINES AS BACE1 INHIBITORS” (HOFFMANN-LA ROCHE INC., priority 2013, published 2015).

Biological target: T1, BACE1 (Homo sapiens, UniProt P56817)
T1 construct: endogenous in cells; host or cells: HEK293 APP cells
Assay: Cellular Aβ-lowering assay (Abeta 40 AlphaLISA)
Assay type: cell-based
Conditions: HEK293 APP cells; 18-20 hrs incubation; Aβ 40 in culture supernatants by AlphaLISA; read-out: BACE1 cell act. Aβ40 IC50
Experimental: Cellular Aβ-lowering assay:
The Abeta 40 AlphaLISA Assay can be used. The HEK293 APP cells were seeded in 96 well Microtiter plates in cell culture medium (Iscove's, plus 10% (v/v) fetal bovine serum, penicillin/streptomycin) to about 80% confluency and the compounds were added at a 3× concentration in ⅓ volume of culture medium (final DMSO concentration was kept at 1% v/v). After 18-20 hrs incubation at 37° C. and 5% CO2 in a humidified incubator, the culture supernatants were harvested for the determination of Aβ 40 concentrations using Perkin-Elmer Human Amyloid beta 1-40 (high specificity) Kit (Cat#AL275C).
In a Perkin-Elmer White Optiplate-384 (Cat#6007290), 2 ul culture supernatants were combined with 2 μl of a 10× AlphaLISA Anti-hAβAcceptor beads+Biotinylated Antibody Anti-Aβ1-40 Mix (50 μg/mL/5 nM). After 1 hour room temperature incubation, 16 μl of a 1.25× preparation of Streptavidin (SA) Donor beads (25 μg/mL) were added and incubated for 30 minutes in the Dark. Light Emission at 615 nm was then recorded using EnVision-Alpha Reader. Levels of Aβ 40 in the culture supernatants were calculated as percentage of maximum signal (cells treated with 1% DMSO without inhibitor). The IC50 values were calculated using the Excel XLfit software.

T1 sequence (P56817 46-501): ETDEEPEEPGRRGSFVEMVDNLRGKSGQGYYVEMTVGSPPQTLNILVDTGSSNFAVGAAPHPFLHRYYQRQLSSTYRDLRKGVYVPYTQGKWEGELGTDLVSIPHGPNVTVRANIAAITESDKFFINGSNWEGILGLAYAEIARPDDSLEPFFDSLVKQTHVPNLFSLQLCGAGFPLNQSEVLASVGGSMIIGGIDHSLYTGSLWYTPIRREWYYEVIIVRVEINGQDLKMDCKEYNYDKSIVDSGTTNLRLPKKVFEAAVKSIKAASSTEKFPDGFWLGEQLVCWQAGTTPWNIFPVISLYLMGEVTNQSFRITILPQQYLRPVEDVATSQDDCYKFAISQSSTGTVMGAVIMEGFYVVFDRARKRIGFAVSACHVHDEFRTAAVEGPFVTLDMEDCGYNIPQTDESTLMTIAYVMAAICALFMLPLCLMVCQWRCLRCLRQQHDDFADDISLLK

Row | IC50 [nM] | Compound
1 | 160 | C[C@@]1(c2cc(C#Cc3nn(C(F)F)cc3Cl)ccc2F)C[C@@H](C(F)(F)F)OC(N)=N1 [Example 68, (4S,6S)-4-(5-((4-chloro-1-(difluoromethyl)-1H-pyrazol-3-yl)ethynyl)-2-fluorophenyl)-4-methyl-6-(trifluoromethyl)-5,6-dihydro-4H-1,3-oxazin-2-amine]
2 | 570 | Cc1cc(F)c([C@]2(C)C[C@@H](C(F)(F)F)OC(N)=N2)cc1C#Cc1ccc(C#N)cn1 [Example 70, 6-((5-((4S,6S)-2-Amino-4-methyl-6-(trifluoromethyl)-5,6-dihydro-4H-1,3-oxazin-4-yl)-4-fluoro-2-methylphenyl)ethynyl)nicotinonitrile]
3 | 1360 | C[C@@]1(c2cc(C#Cc3cnc(C#N)nc3)ccc2F)C[C@@H](C(F)(F)F)OC(N)=N1 [Example 54, 5-[2-[3-[(4S,6S)-2-amino-4-methyl-6-(trifluoromethyl)-5,6-dihydro-1,3-oxazin-4-yl]-4-fluorophenyl]ethynyl]pyrimidine-2-carbonitrile]
4 | 430 | NC1=N[C@](CF)(c2cc(C#Cc3ncc(Cl)cn3)ccc2F)C[C@@H](C(F)(F)F)O1 [Example 63, (4S,6S)-4-[5-[2-(5-Chloropyrimidin-2-yl)ethynyl]-2-fluorophenyl]-4-(fluoromethyl)-6-(trifluoromethyl)-5,6-dihydro-1,3-oxazin-2-amine]
5 | 950 | C[C@@]1(c2cc(C#Cc3ncc(C#N)s3)ccc2F)C[C@@H](C(F)(F)F)OC(N)=N1 [Example 67, 2-((3-((4S,6S)-2-Amino-4-methyl-6-(trifluoromethyl)-5,6-dihydro-4H-1,3-oxazin-4-yl)-4-fluorophenyl)ethynyl)thiazole-5-carbonitrile]
6 | 450 | C[C@@]1(c2cc(C#Cc3ccc(C#N)nc3)ccc2F)C[C@@H](C(F)(F)F)OC(N)=N1 [Example 46, 5-((3-((4S,6S)-2-amino-4-methyl-6-(trifluoromethyl)-5,6-dihydro-4H-1,3-oxazin-4-yl)-4-fluorophenyl)ethynyl)picolinonitrile]
7 | 5650 | COc1ncc(C#Cc2ccc(F)c([C@]3(C)C[C@@H](C(F)(F)F)OC(N)=N3)c2)cn1 [Example 53, (4S,6S)-4-[2-fluoro-5-[2-(2-methoxypyrimidin-5-yl)ethynyl]phenyl]-4-methyl-6-(trifluoromethyl)-5,6-dihydro-1,3-oxazin-2-amine]
8 | 1920 | C[C@@]1(c2cc(C#Cc3ccc(Cl)nc3)ccc2F)C[C@@H](C(F)(F)F)OC(N)=N1 [Example 76, (4S,6S)-4-[5-[2-(6-Chloropyridin-3-yl)ethynyl]-2-fluorophenyl]-4-methyl-6-(trifluoromethyl)-5,6-dihydro-1,3-oxazin-2-amine]
9 | 1170 | C[C@@]1(c2cc(C#Cc3cncc(Cl)c3)ccc2F)C[C@@H](C(F)(F)F)OC(N)=N1 [Example 55, (4S,6S)-4-(5-((5-chloropyridin-3-yl)ethynyl)-2-fluorophenyl)-4-methyl-6-(trifluoromethyl)-5,6-dihydro-4H-1,3-oxazin-2-amine]
10 | 130 | Cc1cc(F)c([C@]2(C)C[C@@H](C(F)(F)F)OC(N)=N2)cc1C#Cc1ncc(C#N)cc1Cl [Example 69, 6-((5-((4S,6S)-2-Amino-4-methyl-6-(trifluoromethyl)-5,6-dihydro-4H-1,3-oxazin-4-yl)-4-fluoro-2-methylphenyl)ethynyl)-5-chloronicotinonitrile]
11 | 59 | Cc1cc(C#Cc2ccc(F)c([C@]3(C)C[C@@H](C(F)(F)F)OC(N)=N3)c2)sn1 [Example 65, (4S,6S)-4-(2-Fluoro-5-((3-methylisothiazol-5-yl)ethynyl)phenyl)-4-methyl-6-(trifluoromethyl)-5,6-dihydro-4H-1,3-oxazin-2-amine]

The remaining lines, values behind:

Row | Compound | IC50 [nM]
12 | C[C@@]1(c2cc(-c3cncc(Cl)c3)ccc2F)C[C@@H](C(F)(F)F)OC(N)=N1 [Example 13, (4S,6S)-4-(5-(5-Chloropyridin-3-yl)-2-fluorophenyl)-4-methyl-6-(trifluoromethyl)-5,6-dihydro-4H-1,3-oxazin-2-amine] | 150
13 | C[C@@]1(c2cc(C#Cc3ncc(Cl)cn3)ccc2F)C[C@@H](C(F)(F)F)OC(N)=N1 [Example 23, (4S,6S)-4-(5-((5-Chloropyrimidin-2-yl)ethynyl)-2-fluorophenyl)-4-methyl-6-(trifluoromethyl)-5,6-dihydro-4H-1,3-oxazin-2-amine] | 77
14 | C[C@@]1(c2cc(-c3cncc(Cl)n3)ccc2F)C[C@@H](C(F)(F)F)OC(N)=N1 [Example 15, (4S,6S)-4-(5-(6-Chloropyrazin-2-yl)-2-fluorophenyl)-4-methyl-6-(trifluoromethyl)-5,6-dihydro-4H-1,3-oxazin-2-amine] | 950
15 | C[C@]1(c2cc(NC(=O)c3ccc(C#N)cn3)ccc2F)N=C(N)O[C@H](C(F)(F)F)[C@@H]1F [Example 2, N-(3-((4R,5R,6S)-2-Amino-5-fluoro-4-methyl-6-(trifluoromethyl)-5,6-dihydro-4H-1,3-oxazin-4-yl)-4-fluorophenyl)-5-cyanopicolinamide] | 10
16 | CC#Cc1cncc(-c2cc([C@]3(C)C[C@@H](C(F)(F)F)OC(N)=N3)c(F)cc2F)c1 [Example 19, (4S,6S)-4-(2,4-Difluoro-5-(5-(prop-1-ynyl)pyridin-3-yl)phenyl)-4-methyl-6-(trifluoromethyl)-5,6-dihydro-4H-1,3-oxazin-2-amine] | 570
17 | NC1=N[C@](CF)(c2cc(-c3nc4ccc(Cl)cc4o3)ccc2F)C[C@@H](C(F)(F)F)O1 [Example 45, (4S,6S)-4-(5-(6-Chlorobenzo[d]oxazol-2-yl)-2-fluorophenyl)-4-(fluoromethyl)-6-(trifluoromethyl)-5,6-dihydro-4H-1,3-oxazin-2-amine] | 1640
18 | C[C@@]1(c2sc(-c3cncc(C#N)c3)cc2Cl)C[C@@H](C(F)(F)F)OC(N)=N1 [Example 31, 5-(5-((4S,6S)-2-Amino-4-methyl-6-(trifluoromethyl)-5,6-dihydro-4H-1,3-oxazin-4-yl)-4-chlorothiophen-2-yl)nicotinonitrile] | 340
19 | COc1cnc(C#Cc2ccc(F)c([C@]3(C)C[C@@H](C(F)(F)F)OC(N)=N3)c2)cn1 [Example 25, (4S,6S)-4-(2-Fluoro-5-((5-methoxypyrazin-2-yl)ethynyl)phenyl)-4-methyl-6-(trifluoromethyl)-5,6-dihydro-4H-1,3-oxazin-2-amine] | 1280
20 | C[C@@]1(c2cc(CCc3ccc(C#N)cn3)ccc2F)C[C@@H](C(F)(F)F)OC(N)=N1 [Example 44, 6-(3-((4S,6S)-2-Amino-4-methyl-6-(trifluoromethyl)-5,6-dihydro-4H-1,3-oxazin-4-yl)-4-fluorophenethyl)nicotinonitrile] | 2020
21 | C[C@@]1(c2cc(-c3cccnc3F)c(F)cc2F)C[C@@H](C(F)(F)F)OC(N)=N1 [Example 18, (4S,6S)-4-(2,4-Difluoro-5-(2-fluoropyridin-3-yl)phenyl)-4-methyl-6-(trifluoro-methyl)-5,6-dihydro-4H-1,3-oxazin-2-amine] | 120
22 | C[C@@]1(c2sc(-c3cccc(C#N)c3)cc2Cl)C[C@@H](C(F)(F)F)OC(N)=N1 [Example 33, 3-(5-((4S,6S)-2-Amino-4-methyl-6-(trifluoromethyl)-5,6-dihydro-4H-1,3-oxazin-4-yl)-4-chlorothiophen-2-yl)benzonitrile] | 510
